IC50 and colonies formation data for seven molecules are collected here from patent US20250213523A1, “COMBINATION OF HDAC INHIBITORS AND STATINS FOR USE IN THE TREATMENT OF PANCREATIC CANCER” (ISTITUTO NAZIONALE TUMORI IRCCS - FONDAZIONE G. PASCALE, priority 2022, published 2025).

One may read the IC50 as the concentration that gives 50% inhibition.

For one test, the system named is COLO357. Kind of test: Cell proliferation assay (Sulforhodamine B), IC50. The class given is cell-based. Conditions: Homo sapiens; COLO357, 96 hours of treatment; read-out: IC50 96 h mean ± SD. As for the experimental part: (§1) Cell proliferation was measured in 96-well plates in cells untreated and treated with described drugs as single agent or in combination. […] Drugs combination studies were based on concentration-effect curves generated as a plot of the fraction of unaffected (surviving) cells versus drug concentration after 96 h of treatment. Synergism, additivity, and antagonism were quantified after an evaluation of the Combination Index (CI), which was calculated by the Chou-Talalay equation with CalcuSyn software (Biosoft, Cambridge, UK-Chou T C. Cancer Res. 2010 Jan. 15; 70(2):440-6.), as described elsewhere (Terranova-Barberio M, J Exp Clin Cancer Res. 2017; 36(1):177); Bruzzese et al, J Cell Physiol 2011, 226(9):2378-2390). […] The DRI determined the magnitude of dose reduction allowed for each drug when given in combination, compared with the concentration of a single agent that is needed to achieve the same effect. Clonogenic assay Colony formation assay is an in vitro cell survival assay based on the ability of a single cell to grow into a colony. The PANC1, ASPC1 and PANC28 cell lines were plated in 96 well plates with 50 cell/well while the BxPC3 cell line with 100 cell/well. […] The cells were grown for 10 days. The formed colonies were fixed with TCA (50%) and measured using a spectrophotometric dye incorporation assay (Sulforhodamine B or crystal violet). Microtissue formation assay Pancreatic cancer cell lines PANC1, ASPC1, PANC28, BxPC3 and MiaPaca were cultured as microtissues by the ultra-low attachment (ULA) System (PerkinElmer). The cancer cells were marked using a green fluorescent probe-cell traker (Thermo Fisher) while fibroblast (only for preliminary experiment to evaluate tissues formation) with red probe (PKH-26 Sigma Aldrich) according to manufacture instruction. […] 3D microtissues were maintained in the incubator and photographed by Opera Phenix microscope (Perkin Elmer) air objective magnification 5× and/or scored by Cell Titer-Glo® 3D Cell Viability Assay (Promega) by using a Multimode Reader Cytation 5 (Biotek).

Another test concerns L3.6pl. Kind of test: Cell proliferation assay (Sulforhodamine B), IC50. The class given is cell-based. Conditions: Homo sapiens, 96 hours of treatment, read-out: IC50 96 h mean ± SD. As for the experimental part: as §1
The next test deals with MDA-PANC28. Kind of test: Cell proliferation assay (Sulforhodamine B), IC50. The class given is cell-based. Conditions: Homo sapiens, MDA-Panc-28; MDA-PANC28, 96 hours of treatment; read-out: IC50 96 h mean ± SD. As for the experimental part: as §1
A further test deals with MIAPACA. Put plainly: Cell proliferation assay (Sulforhodamine B), IC50. The class given is cell-based. Particulars: Homo sapiens, MIA PaCa-2, 96 hours of treatment, read-out: IC50 96 h mean ± SD. As for the experimental part: as §1
A further test concerns BxPC3. Kind of test: Cell proliferation assay (Sulforhodamine B), IC50. The class given is cell-based. Particulars: Homo sapiens, BXPC-3; BxPC3, 96 hours of treatment; read-out: IC50 96 h mean ± SD. As for the experimental part: as §1
A further test deals with KPC ID95. Put plainly: Cell proliferation assay (Sulforhodamine B), IC50. Conditions: Mus musculus; KPC ID95, 96 hours of treatment; read-out: IC50 96 h mean ± SD. The class given is cell-based, C57/BL6 mice. As for the experimental part: (§2) FIG. 1. Pancreatic Cancer Cell lines features. A. Basal mRNA basal levels of EMT markers Vimentin and E-Cadherin in PDAC cell lines L3.6pl, BxPC3, COLO357, PANC28, PANC1, ASPC1 and MIAPACA2, in normal pancreatic cells HPDE cells, as well as in 2 established PDX-derived primary cells KPC ID11 and KPC ID95 were determined by qRT-PCR. […] Cells were grown for 48 h before preparation of cell lysates. Proteins were separated by SDS-PAGE and transferred to PVDF membranes using standard protocols. The membranes were probed with specific antibodies and Ponceau Red as total protein loading controls. Data represents representative results of at least three independent experiments.
as §1

Another test concerns KPC ID11. Kind of test: Cell proliferation assay (Sulforhodamine B), IC50. Particulars: Mus musculus; KPC ID11, 96 hours of treatment; read-out: IC50 96 h mean ± SD. It is filed as cell-based, C57/BL6 mice. As for the experimental part: as §2, §1
The next test deals with ASPC1. Kind of test: Cell proliferation assay (Sulforhodamine B), IC50. The class given is cell-based. Particulars: Homo sapiens; ASPC1, 96 hours of treatment; read-out: IC50 96 h mean ± SD. As for the experimental part:
(§3) Cell proliferation was measured in 96-well plates in cells untreated and treated with described drugs as single agent or in combination. […] Drugs combination studies were based on concentration-effect curves generated as a plot of the fraction of unaffected (surviving) cells versus drug concentration after 96 h of treatment. Synergism, additivity, and antagonism were quantified after an evaluation of the Combination Index (CI), which was calculated by the Chou-Talalay equation with CalcuSyn software (Biosoft, Cambridge, UK-Chou T C. Cancer Res. 2010 Jan. 15; 70(2):440-6.), as described elsewhere (Terranova-Barberio M, J Exp Clin Cancer Res. 2017; 36(1):177); Bruzzese et al, J Cell Physiol 2011, 226(9):2378-2390). […] The DRI determined the magnitude of dose reduction allowed for each drug when given in combination, compared with the concentration of a single agent that is needed to achieve the same effect. Clonogenic assay Colony formation assay is an in vitro cell survival assay based on the ability of a single cell to grow into a colony. The PANC1, ASPC1 and PANC28 cell lines were plated in 96 well plates with 50 cell/well while the BxPC3 cell line with 100 cell/well. The day after the cells were treated with VPA, SIM alone (at dose of IC10, IC25 and IC50) and in combination. The cells were grown for 10 days. The formed colonies were fixed with TCA (50%) and measured using a spectrophotometric dye incorporation assay (Sulforhodamine B or crystal violet). Microtissue formation assay Pancreatic cancer cell lines PANC1, ASPC1, PANC28, BxPC3 and MiaPaca were cultured as microtissues by the ultra-low attachment (ULA) System (PerkinElmer). The cancer cells were marked using a green fluorescent probe-cell traker (Thermo Fisher) while fibroblast (only for preliminary experiment to evaluate tissues formation) with red probe (PKH-26 Sigma Aldrich) according to manufacture instruction. […] 3D microtissues were maintained in the incubator and photographed by Opera Phenix microscope (Perkin Elmer) air objective magnification 5× and/or scored by Cell Titer-Glo® 3D Cell Viability Assay (Promega) by using a Multimode Reader Cytation 5 (Biotek).

The subject of a further test is PANC1. Put plainly: Cell proliferation assay (Sulforhodamine B), IC50. The class given is cell-based. Conditions: Homo sapiens, PANC-1; PANC1, 96 hours of treatment; read-out: IC50 96 h mean ± SD. As for the experimental part: as §3
Test [1] deals with PANC1, ASPC1, PANC28 and BxPC3 cells. Kind of test: Colony formation (clonogenic) assay. It is filed as cell-based, human. Particulars: high (IC25) and low (IC10) doses; all cell lines. As for the experimental part:
FIG. 3. VPA plus SIMVASTATIN antiproliferative and pro-apoptotic effects in PDAC cell lines. A. Synergistic inhibition of colony formation by the VPA/SIM in ASPC1, PANC28, PANC1 and BxPC3 cell lines. […] Upper panel: representative imagines of one experiment; in the lower panel: the bar graphs represent the values of absorbance of colonies after SRB colorimetric assay. Statistical significance was determined by a 2 tailed, unpaired Student's T test (*P<0.05;** P<0.01). B.-C. Synergistic inhibition of microtissues formation by the VPA and SIM alone and in combination. […] The graphics represent the number of viable cells in 3D cell culture based on quantitation of the ATP content. […] Statistical significance was determined by a 2 tailed, unpaired Student's T test (*P<0.05;** P<0.01) (C). […] Antiproliferative effect was assessed in all PDAC cell lines by sulforhodamine B colorimetric assay (see Methods) and expressed as percentage of control. B Apoptosis was evaluated by Caspase 3/7 activity assay, in PANC1, PANC28 and ASPC1 cells untreated or treated for 24 h with VPA/SIM and/or GEM/TAX at the low doses (VPA 0.5 mM, SIM 0,625 μM, GEM 25 nM and TAX 1.25 nM) and evaluated by luminescence assay. […] Expression of cleaved PARP in PANC1, PANC28 and ASPC1 cell lines untreated or treated with VPA/SIM and/or GEM/TAX for 24 h was evaluated by western blotting. βActin was used as loading control. […]

On to `CCCC(CCC)C(=O)O` [VPA, 2-propylpentanoic acid], for which the IC50 in the test with COLO357 was 1000 ± 100 µM; in the test on L3.6pl, 2200 ± 120 µM; with MDA-PANC28, 2800 ± 560 µM; in the test on MIAPACA, 750 ± 50 µM; in the test with BxPC3, 1820 ± 190 µM; with KPC ID95 it was 1600 ± 380 µM. Besides, the IC50 was 1800 ± 40 µM in the test on KPC ID11, 3500 ± 70 µM in the test on ASPC1 and 4500 ± 70 µM in the test with PANC1. Further, the colonies formation result in [1] is “inhibited colonies formation”.

Regarding `Nc1ccccc1NC(=O)c1ccc(CNC(=O)OCc2cccnc2)cc1` [MS-275], the IC50 was greater than 8 µM in the test on COLO357; greater than 8 µM in the test with L3.6pl; 2.1 ± 0.14 µM with MDA-PANC28; 0.02 µM in the test on MIAPACA; 0.9 ± 0.05 µM in the test on BxPC3; greater than 8 µM with KPC ID95. For the same molecule, the IC50 is greater than 8 µM with KPC ID11, 2.2 ± 0.14 µM with ASPC1 and 2.65 ± 0.07 µM in the test with PANC1.

Consider `CC(C)c1c(C(=O)Nc2ccccc2)c(-c2ccccc2)c(-c2ccc(F)cc2)n1CC[C@@H](O)C[C@@H](O)CC(=O)O` [ATOR, Atorvastatin], for which the 50% inhibitory concentration (IC50) with COLO357 came out at 12 ± 2.2 µM; in the test with L3.6pl, 11 ± 3.2 µM; with MDA-PANC28 it was 3.25 ± 0.35 µM; in the test with MIAPACA it was 1.8 ± 0.06 µM; in the test on BxPC3 it was 16.9 ± 4.3 µM; in the test with ASPC1 it was 4.55 ± 0.07 µM. Further, the IC50 in the test with PANC1 came out at 14.4 ± 0.56 µM.

With `CC[C@H](C)C(=O)O[C@H]1C[C@@H](C)C=C2C=C[C@H](C)[C@H](CC[C@@H]3C[C@@H](O)CC(=O)O3)[C@H]21` [LOV, Lovastatin], the IC50 in the test on COLO357 turned out to be 8 ± 0.5 µM; with L3.6pl, 12.1 ± 0.33 µM; in the test on MDA-PANC28, 4.05 ± 0.55 µM; in the test on MIAPACA, 3 ± 0.4 µM; in the test on BxPC3, 18.7 ± 6.95 µM; with ASPC1 it was 8.83 ± 2.4 µM. Also, the IC50 with PANC1 is 28.2 ± 5.9 µM.

In the case of `O=C(CCCCCCC(=O)Nc1ccccc1)NO` [VOR, Vorinostat], the IC50 came to 0.74 ± 0.04 µM with ASPC1 and 0.82 ± 0.1 µM with PANC1.

Consider `CCC(C)(C)C(=O)O[C@H]1C[C@@H](C)C=C2C=C[C@H](C)[C@H](CC[C@@H]3C[C@@H](O)CC(=O)O3)[C@H]21` [SIM, Simvastatin], for which the IC50 in the test on COLO357 was 6 ± 0.5 µM; in the test with L3.6pl it was 5.1 ± 0.8 µM; in the test with MDA-PANC28 it was 1.3 ± 0.07 µM; in the test with MIAPACA, 2 ± 0.21 µM; in the test with BxPC3, 11.2 ± 2.59 µM; in the test on KPC ID95, 1.05 ± 0.06 µM. Besides, the IC50 turned out to be 2.3 ± 0.48 µM in the test on KPC ID11, 1.5 ± 0.28 µM in the test with ASPC1 and 9.2 ± 0.9 µM with PANC1.

Regarding `Cc1[nH]c2ccccc2c1CCNCc1ccc(/C=C/C(=O)NO)cc1` [PAN, 2-(E)-N-hydroxy-3-[4 [[[2-(2-methyl-1H-indol-3-yl)ethyl]amino]methyl]phenyl]-2-propenamide], the IC50 in the test with COLO357 is 0.065 ± 0.00703 µM; in the test on L3.6pl it was greater than 0.16 µM; in the test with MDA-PANC28 it was 0.0224 ± 0.00056 µM; in the test with MIAPACA it was 0.016 ± 0.0014 µM; in the test on BxPC3 it was 0.0243 ± 0.00503 µM; in the test with KPC ID95 it was greater than 0.16 µM. Also, the IC50 is greater than 0.16 µM in the test with KPC ID11, 0.0156 ± 0.00177 µM in the test on ASPC1 and 0.0137 ± 0.00275 µM in the test on PANC1.
